Experimental findings from article PMC12535377, “Synaptic and intrinsic plasticity mediated by CCK-type signaling coordinates behavioral changes during motivational state shifts” (Cell reports, 2025) are described below.

In assay [1] the test system is CBI-2-elicited feeding motor programs. Nature of the assay: CBI-2-elicited feeding motor programs in isolated cerebral and buccal ganglia. Also on record: species or system Aplysia californica. To be noted: for B8 activity (frequency) during retraction: 10^-6 M and 10^-5 M; for Feeding program effect, summary grade: Table S1 summary in words. How it is done: To explore the neural basis of the behavioral effects of apCCKs, we examined their modulation of feeding-motor programs in isolated ganglia. All eight forms of apCCKs were tested on programs induced by CBI-2, a command-like interneuron that is active during food-elicited feeding behavior[56] and provides potent excitatory inputs to buccal central pattern generator (CPG) interneurons,[54],[77] orchestrating ingestive motor programs (Figure S23A). Stable single-cycle motor programs were evoked by stimulating CBI-2 at 8–10 Hz throughout the protraction phase with a 90-s intertrial interval. Two concentrations, 10^−6 M and 10^−5 M, of apCCKs were tested.
(§1) Intracellular and extracellular recordings were made as described previously.[57]–[59],[61],[151] To prevent movements of ganglia caused by myoactive apCCK (especially [sY8]-apCCK1 and [sY6, sY8]-apCCK1) during bath application, we treated the ganglia with 0.8% protease IX for 1–2 min prior to desheathing. Subsequently, ganglia were desheathed, transferred to a recording chamber containing ~1.5 mL of ASW (460 mM NaCl, 10 mM KCl, 11mM CaCl2, 55 mM MgCl2, and 10 mM HEPES, pH 7.6), continuously perfused at 0.3 mL/min, and maintained at 14°C–17°C. The experiments examining the effects of apCCKs on excitability of B20/B34/B61/62/B65/B64 neurons were performed in a high divalent saline (368 mM NaCl, 8 mM KCl, 13.8 mM CaCl2, 115 mM MgCl2, and 10 mM HEPES, pH 7.6), which increases the spiking threshold of neurons and therefore curtails polysynaptic influences. Intracellular recordings were obtained using 5–10 MΩ sharp microelectrodes filled with an electrolyte (0.6 M K2SO4 plus 60 mM KCl). Extracellular recordings were acquired from polyethylene suction electrodes. Grass S88 and WPI Pulsemaster A300 stimulators were used to provide timing signals for intracellular and extracellular stimulation. To determine the effects of various forms of apCCKs on Aplysia feeding programs, we performed experiments with the cerebral and buccal ganglia. Freshly made apCCK solution in ASW was perfused into the recording chamber. Feeding-motor programs were elicited by stimulation of command-like neuron CBI-2 at 8–10 Hz or stimulation of the EN at 2 Hz, 3 ms, 15 V, and were monitored by bursting activity of the I2 nerve of the buccal ganglion.[58],[59],[61] Typically, we recorded from motor neuron B8, and one interneuron, e.g., B40 or B20. To determine effects of apCCKs on synaptic strength, we stimulated presynaptic neuron, CBI-2, B34 (plus 1 nA current) or B65 at 10 Hz for 2 s for several trials and waited 1 min between each trial. The stimulation duration for each trial was set at 2 s because this allows the expression of synaptic facilitation without evoking too many spikes. Typically, the amplitude of the last EPSP at each concentration of peptides was quantified unless otherwise stated.

The test system of the next assay is Aplysia californica. The assay can be described thus: Feeding behavior (food intake) in intact animals after peptide injection. In kind it is in vivo. Conditions: for Behavioral effect (food intake), summary grade: Table S1 summary in words; for Food intake (seaweed consumed in a single meal): food-deprived animals. From the text:
To explore the role of apCCKs as satiety signals in mollusks, we examined their effects on food intake. […] The remaining four forms had no impact (Figure S9). Moreover, [sY6, sY8]-apCCK1 slowed food consumption (Figure 2E), which could stem, in part, from a shift from ingestive to egestive patterns as the meal progressed. [sY6, sY8]-apCCK1 also extended the duration to consume one strip of seaweed compared to controls (Figure 2F), further mimicking natural satiety.
Behavioral experiments were conducted in two batches, each using animals from separate shipments. In the first batch (Figure 2), animals were larger, with an average body weight of 93.3 ± 4.8 g, and were food-deprived for 7 days prior to testing. In the second batch (Figure S9), animals were smaller (average weight: 70.6 ± 4.0 g) and were food-deprived for 5 days to account for their reduced size. In each experiment, two weight-matched animals were housed in separate round net cages (17 cm diameter and 17 cm height) that were placed in a 500 L tank filled with circulating aerated ASW (14°C–16°C). To ensure that the animals were responsive to food, they were first pretested with a small piece of seaweed. After this pretest, in each pair, one animal was injected (into the hemocoel using a syringe needle) with apCCKs freshly dissolved in 1.5 mL ASW, whereas the other was injected with 1.5 mL of ASW. Three minutes later, the feeding session commenced. Animals were hand-fed seaweed (Shirako, Tokyo, Japan) cut in 1 × 10 cm strips, weighing ~0.1 g, increasing 10-fold when hydrated. This hand-feeding approach has been used in prior study of Aplysia feeding behavior.[146],[147] The consumed seaweed amount was converted to hydrated weight and normalized to the animal’s body weight. Each strip of seaweed was delivered to the mouth area with forceps. Feeding was terminated after 1 h or when animals stopped ingesting seaweed for 3 min.

In assay [2] the test system is EN-elicited feeding motor programs. The assay can be described thus: EN-elicited egestive motor programs in isolated ganglia. The arrangement: species or system Aplysia californica. Conditions: EN stimulation at 2 Hz. The source says: Although protraction (B61/62) activity is inhibited by apCCKs during CBI-2-elicited programs, this might not be the case for the egestive motor programs elicited by EN stimulation, which could contribute positively to satiety. We therefore examined [sY8]-apCCK1 effects on B61/62 activity in EN-elicited egestive motor programs. […] This difference may be explained in part by effects on the interneuron B65, which is strongly active during EN programs but not during CBI-2 programs,[56],[81]–[83] whereas the opposite is true for B34.[54],[61] B65 elicits fast excitatory postsynaptic potentials (EPSPs) in B61/62.[81] [sY8]-apCCK1 increased B65 excitability (Figures 6M and 6N) and EPSPs from B65 to B61/62 (Figures 6O and 6P), which could account for the increase of B61/62 activity during EN programs.
Intracellular and extracellular recordings were made as described previously.[57]–[59],[61],[151] […] Feeding-motor programs were elicited by stimulation of command-like neuron CBI-2 at 8–10 Hz or stimulation of the EN at 2 Hz, 3 ms, 15 V, and were monitored by bursting activity of the I2 nerve of the buccal ganglion.[58],[59],[61] Typically, we recorded from motor neuron B8, and one interneuron, e.g., B40 or B20. […] Typically, the amplitude of the last EPSP at each concentration of peptides was quantified unless otherwise stated.

Assay [3] relates to B20, B40, B64, B34, B61/62, B65 neurons and CBI-2 synapses. The assay can be described thus: Electrophysiology: excitability and synaptic strength of identified feeding-circuit neurons. Also on record: species or system Aplysia californica.
Excerpt: To characterize apCCK mechanisms of action, we investigated their effects on synaptic and intrinsic plasticity of key circuit elements. […] However, [sY8]-apCCK1 decreased synaptic strength between CBI-2 and B40 (Figures S26C and S26D).
as §1

Where [4] appears, read: injection into hemocoel of apCCK solutions (10^-7 M or 10^-6 M) vs ASW.
Setting [5] is: presynaptic stimulation 10 Hz for 2 s, last EPSP.

Structures are written as SMILES. Non-standard residues stand in square brackets, D forms with d. Residues, ends and D or L forms follow the SMILES beside them. sY = N[C@@H](Cc1ccc(OS(=O)(=O)O)cc1)C(=O)O; pGlu = O=C1CC[C@@H](C(=O)O)N1

On to `CC(C)C[C@H](NC(=O)CNC(=O)[C@H](Cc1ccc(OS(=O)(=O)O)cc1)NC(=O)[C@H](CC(=O)O)NC(=O)[C@H](Cc1ccc(OS(=O)(=O)O)cc1)NC(=O)[C@H](CO)NC(=O)[C@H](Cc1c[nH]c2ccccc12)NC(=O)[C@H](C)NC(=O)CNC(=O)[C@@H]1CCC(=O)N1)C(=O)NCC(=O)NCC(=O)NCC(=O)N[C@@H](CCCNC(=N)N)C(=O)N[C@@H](Cc1ccccc1)C(N)=O` [[sY6, sY8]-apCCK1] ([pGlu]GAWS[sY]D[sY]GLGGGRF-NH2), for which the “Protraction duration of CBI-2 programs” value in assay [1] (10^-6 M and 10^-5 M tested) is on record as “shortened”. For the same compound, the “B8 activity (frequency) during retraction” value in assay [1] (CBI-2 programs) was “reduced”. Further, the “Feeding program effect, summary grade” value in assay [1] is on record as “Strong”. In the assay with Aplysia californica, the “Behavioral effect (food intake), summary grade” value (shortened to “Behavioral effect (food intake)”) is “Strong”. Also, in the assay on Aplysia californica (injected with 10^-8 M, compared with control animals), the “Time to consume one strip of seaweed (average of the first three strips)” value is “took longer”. The “Food intake (seaweed consumed in a single meal)” value with Aplysia californica (setting [4]) is “strongly reduced food intake”.

On to `CC(C)C[C@H](NC(=O)CNC(=O)[C@H](Cc1ccc(O)cc1)NC(=O)[C@H](CC(=O)O)NC(=O)[C@H](Cc1ccc(OS(=O)(=O)O)cc1)NC(=O)[C@H](CO)NC(=O)[C@H](Cc1c[nH]c2ccccc12)NC(=O)[C@H](C)NC(=O)CNC(=O)[C@@H]1CCC(=O)N1)C(=O)NCC(=O)NCC(=O)NCC(=O)N[C@@H](CCCNC(=N)N)C(=O)N[C@@H](Cc1ccccc1)C(N)=O` [[sY6]-apCCK1] ([pGlu]GAWS[sY]DYGLGGGRF-NH2), for which, in assay [1], the “Feeding program effect, summary grade” value is “No effect”. In the assay on Aplysia californica, the “Behavioral effect (food intake)” value is “No effect”. Moreover, the “Food intake (seaweed consumed in a single meal)” value in the assay on Aplysia californica (setting [4]) is “did not influence feeding”.

As to `CC(C)C[C@H](NC(=O)CNC(=O)[C@H](Cc1ccc(OS(=O)(=O)O)cc1)NC(=O)[C@H](CC(=O)O)NC(=O)[C@H](Cc1ccc(O)cc1)NC(=O)[C@H](CO)NC(=O)[C@H](Cc1c[nH]c2ccccc12)NC(=O)[C@H](C)NC(=O)CNC(=O)[C@@H]1CCC(=O)N1)C(=O)NCC(=O)NCC(=O)NCC(=O)N[C@@H](CCCNC(=N)N)C(=O)N[C@@H](Cc1ccccc1)C(N)=O` [[sY8]-apCCK1] ([pGlu]GAWSYD[sY]GLGGGRF-NH2), in assay [1] (10^-6 M), the “B20 firing frequency in CBI-2 programs” value was “increased” and the “Type of CBI-2-elicited motor program” value is listed as “shifted ingestive programs to egestive”. Further, in assay [1] (10^-6 M and 10^-5 M tested), the “B34 frequency in CBI-2 programs” value is “decreased”, the “B40 firing frequency in CBI-2 programs” value is reported as “decreased”, the “B61/62 frequency in CBI-2 programs” value was “decreased” and the “Protraction duration of CBI-2 programs” value is listed as “shortened”. The “Retraction duration of CBI-2 programs” value in assay [1] (10^-6 M and 10^-5 M tested) was “shortened”. The “B8 activity during protraction” value in assay [1] (CBI-2 programs, 10^-5 M) is reported as “decreased”. For the same compound, the “B8 activity during protraction” value in assay [1] (CBI-2 programs, 10^-6 M) is recorded as “significantly increased”. For the same compound, the “B8 activity (frequency) during retraction” value in assay [1] (CBI-2 programs) was “significantly decreased”. Besides, in assay [1] (CBI-2 programs, 10^-6 M and 10^-5 M tested), the “Firing frequency of the I2 nerve” value is recorded as “significantly decreased”. In assay [1], the “Feeding program effect, summary grade” value is recorded as “Strongest”. For the same compound, the “B61/62 firing frequency in EN-elicited programs” value in assay [2] is “increased”. In assay [3], the B40 excitability result is “enhanced”; the “Synaptic strength between CBI-2 and B40” value is given as “decreased”. Moreover, the B20 excitability result in assay [3] (10^-6 M, high divalent saline) is given as “significantly enhanced”. The “EPSPs from B65 to B61/62” value in assay [3] (first EPSP of each stimulation trial) was “increased”. In assay [3] (high divalent saline), the B34 excitability result was “enhanced”, the B61/62 excitability result is “enhanced”, the B64 excitability entry is listed as “enhanced” and the B65 excitability entry is on record as “increased”. In addition, the B20 excitability result in assay [3] (higher concentration (10^-5 M), high divalent saline) is on record as “no significant effect”. Further, in assay [3] (setting [5]), the “Synaptic strength between B34 and B61/62” value was “decreased”; the “Synaptic strength between CBI-2 and B34” value is given as “decreased”; the “Synaptic strength between CBI-2 and B61/62” value is reported as “decreased”. Also, in the assay with Aplysia californica, the “Behavioral effect (food intake)” value was “Strongest”. Besides, in the assay with Aplysia californica (injection into hemocoel, 10^-8 M or 10^-7 M), the “Food intake (seaweed consumed in a single meal)” value was “completely inhibiting consumption”.

As for `CC(C)C[C@H](NC(=O)CNC(=O)[C@H](Cc1ccc(O)cc1)NC(=O)[C@H](CC(=O)O)NC(=O)[C@H](Cc1ccc(O)cc1)NC(=O)[C@H](CO)NC(=O)[C@H](Cc1c[nH]c2ccccc12)NC(=O)[C@H](C)NC(=O)CNC(=O)[C@@H]1CCC(=O)N1)C(=O)NCC(=O)NCC(=O)NCC(=O)N[C@@H](CCCNC(=N)N)C(=O)N[C@@H](Cc1ccccc1)C(N)=O` [apCCK1] ([pGlu]GAWSYDYGLGGGRF-NH2), the “Feeding program effect, summary grade” value in assay [1] is “No effect”. In addition, the “Behavioral effect (food intake)” value with Aplysia californica was “No effect”. The “Food intake (seaweed consumed in a single meal)” value in the assay on Aplysia californica (setting [4]) was “did not influence feeding”.
